Measured values reported in patent publication US20160310445A1, “PREVENTION AND COUNTERACTION OF DIET-INDUCED THROMBOSIS RISK” (VITAK BV, priority 2013, published 2016).

Assays:
[1] = test system: uncarboxylated osteocalcin relative to total osteocalcin; experiment: Vitamin K status by ucOC/tOC ratio in renal transplant recipients treated with menaquinone-7 (Experiment 5); format: in vivo, renal transplant recipients (human)
Excerpt: In yet a further aspect, vitamin K used according to the present invention is to be administered to specific groups of subjects. As already stated supra, mammalian subjects according to the invention are in particular human subjects. Vitamin K may, in the context of the invention, be administered to healthy or apparently healthy human subjects, preferably healthy or apparently healthy adult human subjects, which may benefit from vitamin K supplementation. In particular, these subjects are characterized in that they have a regular vitamin K status and a normal thrombosis risk, particularly a normal venous thrombosis risk. The vitamin K status may e.g. be determined using the ucOC/tOC ratio, i.e. the amount of circulating uncarboxylated osteocalcin (ucOC) relative to the total amount of osteocalcin (tOC). The vitamin K status may also be determined using other methods, e.g. the carboxylation degree of the vascular Gla-protein MGP, but since this assay is not yet commercially available, the ucOC/tOC ratio will be used throughout this document.
In the present study, a group of 32 RTR were randomly subdivided into 4 groups of 8 subjects each and compared with 24 age- and sex-matched healthy volunteers.
The RTR were treated with the following doses of vitamin K2 (menaquinone-7) for 3 months: 0, 90, 180 and 360 μg/day. Blood was taken at baseline and at the end of the study to prepare EDTA plasma and serum. Vitamin K status was assessed by measuring the ucOC/tOC ratio and the thrombosis tendency was estimated from the ETP values.

[2] = test system: Endogenous Thrombin Potential (thrombin generation in plasma); experiment: ETP in renal transplant recipients treated with menaquinone-7 (Experiment 5); format: in vivo, renal transplant recipients (human)
Excerpt: (§1) There are several ways in which thrombosis tendency or increased thrombosis risk may be established, but most of them are based on one of the two following principles: • a) Citrated plasma is collected by venipuncture and clotting is induced by adding tissue factor (thromboplastin) and recalcification. The time required to clot is compared to the clotting time of a reference sample and expressed as International Normalized Ratio (INR). This method is sensitive for monitoring patients during anticoagulation treatment (INR>2.0), but insensitive for INR values<1.0 (increased thrombosis risk). • b) Citrated plasma is collected by venipuncture, defibrinated and the conversion of prothrombin into thrombin is initiated by adding tissue factor and calcium. The total amount of thrombin generated in a certain time period is expressed as Endogenous Thrombin Potential (ETP), whereas also other kinetic characteristics (thrombin peak height, time to peak) provide additional information (E. De Smedt, R. Al Dieri, H. M. Spronk, K. Hamulyak, H. ten Cate, H. C. Hemker: Thromb. Haemost. 2008; 100:343-349).
(§2) The ETP reflects the amount of thrombin that can be formed in a period of time following activation of platelet-poor plasma. The amount of thrombin generated is monitored using a chromogenic substrate for thrombin, and results from three independent principles: the circulating concentration of coagulation factors, the concentration of coagulation inhibitors (proteins C and S) and the concentration of thrombin inhibitors such as antithrombin III. Typical ETP curves show a rapid increase of thrombin formed in the first 6-8 minutes after activation, followed by a decline caused by thrombin inhibitors such as antithrombin III. […] Generally, the ETP is expressed as the area under the curve during the first 30 minutes of thrombin formation. […]
The RTR were treated with the following doses of vitamin K2 (menaquinone-7) for 3 months: 0, 90, 180 and 360 μg/day. […] Vitamin K status was assessed by measuring the ucOC/tOC ratio and the thrombosis tendency was estimated from the ETP values.

[3] = test system: Endogenous Thrombin Potential (thrombin generation in plasma); experiment: ETP at baseline and after one year of vitamin K1 by tertile of vitamin K status (Experiment 3); format: in vivo, postmenopausal women; conditions: 1 mg/day, group with the highest ucOC/tOC ratio (0.20, n=19), only in this group
Excerpt: as §1, with “This method is sensitive for monitoring patients during anticoagulation treatment (INR>2.0), but insensitive for INR values<1.0 (increased thrombosis risk). • b) Citrated plasma is collected by venipuncture, defibrinated and the conversion of prothrombin into thrombin is initiated by adding tissue factor and calcium.” left out
as §2, with “III.” for “III. Typical ETP curves show a rapid increase of thrombin formed in the first 6-8 minutes after activation, followed by a decline caused by thrombin inhibitors such as antithrombin III.”

SMILES	change of ucOC/tOC ratio with dose ([1]; 0, 90, 180 and 360 μg/day, 3 months, FIG. 5A)	decline of ucOC/tOC ratio compared to baseline ([1]; 180 and 360 μg/day, 3 months)	difference in ucOC/tOC ratio between the 0 μg/day and the 360 μg/day intake groups ([1]; t=3 months)	change of ETP with dose ([2]; 0, 90, 180 and 360 μg/day, 3 months, FIG. 5B)	decline of ETP compared to baseline ([2]; 180 and 360 μg/day, 3 months)	difference in ETP between the 0 μg/day and the 360 μg/day intake groups ([2]; t=3 months)	change of ETP after vitamin K supplementation [3]
CC(C)=CCC/C(C)=C/CC/C(C)=C/CC/C(C)=C/CC/C(C)=C/CC/C(C)=C/CC/C(C)=C/CC1=C(C)C(=O)c2ccccc2C1=O [menaquinone-7]	decreased in a dose-dependent way	statistically significant	significant	decreased at increasing doses	statistically significant	significant	
CC1=C(C/C=C(\C)CCC[C@H](C)CCC[C@H](C)CCCC(C)C)C(=O)c2ccccc2C1=O [vitamin K1, phylloquinone]							declined significantly
